Source: PubChem BioAssay (NCI)
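Cultured in 96-well plates, cells were exposed to test compound for 48 hours across five concentrations. Abbreviation: GI50, concentration required for 50% inhibition of growth. TGI: total growth inhibition.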

Experiments:
Test in all cases: growth of human tumour cells (NCI), 48 h
MCF7 breast = test system: MCF7 breast
SF-268 CNS = test system: SF-268 CNS
PC-3 prostate = test system: PC-3 prostate
UACC-257 melanoma = test system: UACC-257 melanoma
NCI-H460 lung = test system: NCI-H460 lung
A549 NSCLC = test system: A549 NSCLC
OVCAR-8 ovarian = test system: OVCAR-8 ovarian
OVCAR-3 ovarian = test system: OVCAR-3 ovarian
SF-295 CNS = test system: SF-295 CNS
DU-145 prostate = test system: DU-145 prostate
HCT-116 colon = test system: HCT-116 colon
RXF 393 renal = test system: RXF 393 renal
SF-539 CNS = test system: SF-539 CNS
SN12C renal = test system: SN12C renal
NCI-H23 lung = test system: NCI-H23 lung
IGROV1 ovarian = test system: IGROV1 ovarian
SK-OV-3 ovarian = test system: SK-OV-3 ovarian
SNB-19 CNS = test system: SNB-19 CNS
OVCAR-4 ovarian = test system: OVCAR-4 ovarian
MALME-3M melanoma = test system: MALME-3M melanoma
M14 melanoma = test system: M14 melanoma
NCI-H522 lung = test system: NCI-H522 lung
SK-MEL-5 melanoma = test system: SK-MEL-5 melanoma
HS 578T breast = test system: HS 578T breast
SK-MEL-28 melanoma = test system: SK-MEL-28 melanoma
ACHN renal = test system: ACHN renal
HT29 colon = test system: HT29 colon
U251 CNS = test system: U251 CNS
TK-10 renal = test system: TK-10 renal
A498 renal = test system: A498 renal
NCI-H226 lung = test system: NCI-H226 lung
OVCAR-5 ovarian = test system: OVCAR-5 ovarian
SNB-75 CNS = test system: SNB-75 CNS
786-0 renal = test system: 786-0 renal
UACC-62 melanoma = test system: UACC-62 melanoma
UO-31 renal = test system: UO-31 renal
CAKI-1 renal = test system: CAKI-1 renal
LOX IMVI melanoma = test system: LOX IMVI melanoma
NCI/ADR-RES ovarian = test system: NCI/ADR-RES ovarian
MDA-MB-231 breast = test system: MDA-MB-231 breast
T-47D breast = test system: T-47D breast
EKVX NSCLC = test system: EKVX NSCLC
HOP-92 NSCLC = test system: HOP-92 NSCLC

COc1cc2nc(-c3ccc(-n4cncc4-c4ccc(N)cc4)cc3)sc2c(OC)c1OC
GI50 (MCF7 breast): 3.02 µM
TGI (MCF7 breast): > 100 µM
GI50 (SF-268 CNS): 12.3 µM
TGI (SF-268 CNS): 62.1 µM
GI50 (PC-3 prostate): 3.02 µM
TGI (PC-3 prostate): 49.2 µM
GI50 (UACC-257 melanoma): 6.4 µM
TGI (UACC-257 melanoma): > 100 µM
GI50 (NCI-H460 lung): 5.13 µM
TGI (NCI-H460 lung): > 100 µM
GI50 (A549 NSCLC): 3.14 µM
TGI (A549 NSCLC): 32.5 µM
GI50 (OVCAR-8 ovarian): 4.23 µM
TGI (OVCAR-8 ovarian): 57.8 µM
GI50 (OVCAR-3 ovarian): 2.73 µM
TGI (OVCAR-3 ovarian): 15.1 µM
GI50 (SF-295 CNS): 1.53 µM
TGI (SF-295 CNS): 7.14 µM
GI50 (DU-145 prostate): 7.25 µM
TGI (DU-145 prostate): > 100 µM
GI50 (HCT-116 colon): 3.81 µM
TGI (HCT-116 colon): > 100 µM
GI50 (RXF 393 renal): 4.41 µM
TGI (RXF 393 renal): 21.1 µM
GI50 (SF-539 CNS): 7.14 µM
TGI (SF-539 CNS): > 100 µM
GI50 (SN12C renal): 8.95 µM
TGI (SN12C renal): > 100 µM
GI50 (NCI-H23 lung): 3.87 µM
TGI (NCI-H23 lung): 23.7 µM
GI50 (IGROV1 ovarian): 2.63 µM
TGI (IGROV1 ovarian): 20.2 µM
GI50 (SK-OV-3 ovarian): 11.7 µM
TGI (SK-OV-3 ovarian): 31.3 µM
GI50 (SNB-19 CNS): 12.3 µM
TGI (SNB-19 CNS): 51.1 µM
GI50 (OVCAR-4 ovarian): 3.6 µM
TGI (OVCAR-4 ovarian): 32.1 µM
GI50 (MALME-3M melanoma): 0.71 µM
TGI (MALME-3M melanoma): 6.44 µM
GI50 (M14 melanoma): 2.1 µM
TGI (M14 melanoma): > 100 µM
GI50 (NCI-H522 lung): 2.74 µM
TGI (NCI-H522 lung): 21.6 µM
GI50 (SK-MEL-5 melanoma): 2.74 µM
TGI (SK-MEL-5 melanoma): > 100 µM
GI50 (HS 578T breast): 5.36 µM
TGI (HS 578T breast): 49.7 µM
GI50 (SK-MEL-28 melanoma): > 100 µM
TGI (SK-MEL-28 melanoma): > 100 µM
GI50 (ACHN renal): 8.56 µM
TGI (ACHN renal): > 100 µM
GI50 (HT29 colon): 2.79 µM
TGI (HT29 colon): > 100 µM
GI50 (U251 CNS): 3.84 µM
TGI (U251 CNS): 17 µM
GI50 (TK-10 renal): 4.93 µM
TGI (TK-10 renal): > 100 µM
GI50 (A498 renal): 2.13 µM
TGI (A498 renal): > 100 µM
GI50 (NCI-H226 lung): 4.73 µM
TGI (NCI-H226 lung): 40.6 µM
GI50 (OVCAR-5 ovarian): 34.3 µM
TGI (OVCAR-5 ovarian): > 100 µM
GI50 (SNB-75 CNS): 5.94 µM
TGI (SNB-75 CNS): 23.5 µM
GI50 (786-0 renal): 6.26 µM
TGI (786-0 renal): > 100 µM
GI50 (UACC-62 melanoma): 5.45 µM
TGI (UACC-62 melanoma): > 100 µM
GI50 (UO-31 renal): 1.55 µM
TGI (UO-31 renal): 6.87 µM
GI50 (CAKI-1 renal): 1.41 µM
TGI (CAKI-1 renal): 5.85 µM
GI50 (LOX IMVI melanoma): 3.65 µM
TGI (LOX IMVI melanoma): > 100 µM
GI50 (NCI/ADR-RES ovarian): 1.61 µM
TGI (NCI/ADR-RES ovarian): 6.43 µM
GI50 (MDA-MB-231 breast): 3.66 µM
TGI (MDA-MB-231 breast): > 100 µM
GI50 (T-47D breast): 1.59 µM
TGI (T-47D breast): 6.71 µM
GI50 (EKVX NSCLC): 2.49 µM
TGI (EKVX NSCLC): 75.9 µM
GI50 (HOP-92 NSCLC): 0.446 µM
TGI (HOP-92 NSCLC): 4.08 µM
